System: 695427-040-R-J1-PDC complex spheroid viability
Assay: Anticancer human tumor 695427-040-R-J1-PDC patient-derived colon adenocarcinoma cell line growth inhibition [POLQ]
Conditions: for IC50: curve of first compound; for viability, T/C: stronger effect = lower value
Procedure, shortened: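 Complex spheroid viability model combining PDC tumour cells with endothelial (HUVEC) and MSC stromal cells. Novobiocin, ART-558 or RP6685 were tested singly and in combination with standard and investigational anticancer drugs. Each was titrated in half-log steps from near clinical Cmax, or from 10 microM where Cmax was unknown.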

[1] = second compound 0.0316 µM, first compound 0.00316 µM
[2] = second compound 0.0316 µM, first compound 0.01 µM
[3] = second compound 0.0316 µM, first compound 0.0316 µM
[4] = second compound 0.0316 µM, first compound 0.1 µM
[5] = second compound 0.1 µM, first compound 0.00316 µM
[6] = second compound 0.1 µM, first compound 0.01 µM
[7] = second compound 0.1 µM, first compound 0.0316 µM
[8] = second compound 0.1 µM, first compound 0.1 µM
[9] = second compound 0.316 µM, first compound 0.00316 µM
[10] = second compound 0.316 µM, first compound 0.01 µM
[11] = second compound 0.316 µM, first compound 0.0316 µM
[12] = second compound 0.316 µM, first compound 0.1 µM
[13] = second compound 1 µM, first compound 0.00316 µM
[14] = second compound 1 µM, first compound 0.01 µM
[15] = second compound 1 µM, first compound 0.0316 µM
[16] = second compound 1 µM, first compound 0.1 µM
[17] = second compound 3.16 µM, first compound 0.00316 µM
[18] = second compound 3.16 µM, first compound 0.01 µM
[19] = second compound 3.16 µM, first compound 0.0316 µM
[20] = second compound 3.16 µM, first compound 0.1 µM
[21] = second compound 10 µM, first compound 0.00316 µM
[22] = second compound 10 µM, first compound 0.01 µM
[23] = second compound 10 µM, first compound 0.0316 µM
[24] = second compound 10 µM, first compound 0.1 µM
[25] = second compound 0.0316 µM, first compound 0.316 µM
[26] = second compound 0.0316 µM, first compound 1 µM
[27] = second compound 0.1 µM, first compound 0.316 µM
[28] = second compound 0.1 µM, first compound 1 µM
[29] = second compound 0.316 µM, first compound 0.316 µM
[30] = second compound 0.316 µM, first compound 1 µM
[31] = second compound 1 µM, first compound 0.316 µM
[32] = second compound 1 µM, first compound 1 µM
[33] = second compound 3.16 µM, first compound 0.316 µM
[34] = second compound 3.16 µM, first compound 1 µM
[35] = second compound 10 µM, first compound 0.316 µM
[36] = second compound 10 µM, first compound 1 µM
[37] = second compound 0.0316 µM, first compound 3.16 µM
[38] = second compound 0.0316 µM, first compound 10 µM
[39] = second compound 0.1 µM, first compound 3.16 µM
[40] = second compound 0.1 µM, first compound 10 µM
[41] = second compound 0.316 µM, first compound 3.16 µM
[42] = second compound 0.316 µM, first compound 10 µM
[43] = second compound 1 µM, first compound 3.16 µM
[44] = second compound 1 µM, first compound 10 µM
[45] = second compound 3.16 µM, first compound 3.16 µM
[46] = second compound 3.16 µM, first compound 10 µM
[47] = second compound 10 µM, first compound 3.16 µM
[48] = second compound 10 µM, first compound 10 µM
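Note: spheroids exposed to compounds for seven days.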
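Throughout, for viability, T/C: 100% = DMSO vehicle control viability.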

`CC[C@@]1(O)C(=O)OCc2c1cc1n(c2=O)Cc2cc3c(CN(C)C)c(O)ccc3nc2-1` + Nc1ccc(C#CCN(C(=O)Cc2ncc(C(F)(F)F)cc2C(F)(F)F)c2ccc(F)cc2)nn1 was tested, and the IC50 (second compound 0.0316 µM) was over 0.1 µM, the IC50 (second compound 0.1 µM) was over 0.1 µM and the IC50 (second compound 0.316 µM) was over 0.1 µM. It also gave an IC50 (second compound 1 µM) of over 0.1 µM, an IC50 (second compound 3.16 µM) of over 0.1 µM and an IC50 (second compound 10 µM) of over 0.1 µM. For the same compound, the viability, T/C (second compound 0.0316 µM, first compound 0.000316 µM) was 110%, the viability, T/C (second compound 0.0316 µM, first compound 0.001 µM) was 111% and the viability, T/C [1] was 102%. It also gave a viability, T/C [2] of 102%, a viability, T/C [3] of 115% and a viability, T/C [4] of 109%. For the same compound, the viability, T/C (second compound 0.1 µM, first compound 0.000316 µM) was 114%, the viability, T/C (second compound 0.1 µM, first compound 0.001 µM) was 105% and the viability, T/C [5] was 104%. For the same compound, the viability, T/C [6] was 100%, the viability, T/C [7] was 107% and the viability, T/C [8] was 103%. For the same compound, the viability, T/C (second compound 0.316 µM, first compound 0.000316 µM) was 109%, the viability, T/C (second compound 0.316 µM, first compound 0.001 µM) was 102% and the viability, T/C [9] was 108%. It also gave a viability, T/C [10] of 97.7%, a viability, T/C [11] of 108% and a viability, T/C [12] of 101%. For the same compound, the viability, T/C (second compound 1 µM, first compound 0.000316 µM) was 100%, the viability, T/C (second compound 1 µM, first compound 0.001 µM) was 97.8% and the viability, T/C [13] was 105%. For the same compound, the viability, T/C [14] was 109%, the viability, T/C [15] was 110% and the viability, T/C [16] was 103%. It also gave a viability, T/C (second compound 3.16 µM, first compound 0.000316 µM) of 107%, a viability, T/C (second compound 3.16 µM, first compound 0.001 µM) of 111% and a viability, T/C [17] of 102%. The viability, T/C [18] was 107%, the viability, T/C [19] was 114% and the viability, T/C [20] was 103%. It also gave a viability, T/C (second compound 10 µM, first compound 0.000316 µM) of 99.5%, a viability, T/C (second compound 10 µM, first compound 0.001 µM) of 98.3% and a viability, T/C [21] of 103%. The viability, T/C [22] was 89.4%, the viability, T/C [23] was 95.3% and the viability, T/C [24] was 93.9%.
`CCc1c2c(nc3ccc(O)cc13)-c1cc3c(c(=O)n1C2)COC(=O)[C@]3(O)CC` + Nc1ccc(C#CCN(C(=O)Cc2ncc(C(F)(F)F)cc2C(F)(F)F)c2ccc(F)cc2)nn1 was tested, and the IC50 (second compound 0.0316 µM) was over 1 µM, the IC50 (second compound 0.1 µM) was over 1 µM and the IC50 (second compound 0.316 µM) was over 1 µM. For the same compound, the IC50 (second compound 1 µM) was over 1 µM, the IC50 (second compound 3.16 µM) was over 1 µM and the IC50 (second compound 10 µM) was over 1 µM. For the same compound, the viability, T/C [1] was 116%, the viability, T/C [2] was 102% and the viability, T/C [3] was 89.6%. For the same compound, the viability, T/C [4] was 90.8%, the viability, T/C [25] was 81.2% and the viability, T/C [26] was 69.9%. The viability, T/C [5] was 114%, the viability, T/C [6] was 107% and the viability, T/C [7] was 95.7%. It also gave a viability, T/C [8] of 93.5%, a viability, T/C [27] of 81.2% and a viability, T/C [28] of 60%. The viability, T/C [9] was 117%, the viability, T/C [10] was 109% and the viability, T/C [11] was 85.3%. For the same compound, the viability, T/C [12] was 92.6%, the viability, T/C [29] was 85.8% and the viability, T/C [30] was 68.3%. For the same compound, the viability, T/C [13] was 107%, the viability, T/C [14] was 98.7% and the viability, T/C [15] was 88.4%. For the same compound, the viability, T/C [16] was 85.3%, the viability, T/C [31] was 83.6% and the viability, T/C [32] was 52.5%. For the same compound, the viability, T/C [17] was 101%, the viability, T/C [18] was 99.2% and the viability, T/C [19] was 97.9%. It also gave a viability, T/C [20] of 92%, a viability, T/C [33] of 77% and a viability, T/C [34] of 60.6%. The viability, T/C [21] was 101%, the viability, T/C [22] was 94.8% and the viability, T/C [23] was 86.7%. It also gave a viability, T/C [24] of 85%, a viability, T/C [35] of 72.7% and a viability, T/C [36] of 57.1%.
`CNCc1ccc(-c2[nH]c3cc(F)cc4c3c2CCNC4=O)cc1` + Nc1ccc(C#CCN(C(=O)Cc2ncc(C(F)(F)F)cc2C(F)(F)F)c2ccc(F)cc2)nn1 gave an IC50 (second compound 0.0316 µM) of over 10 µM, an IC50 (second compound 0.1 µM) of over 10 µM and an IC50 (second compound 0.316 µM) of over 10 µM. It also gave an IC50 (second compound 1 µM) of over 10 µM, an IC50 (second compound 3.16 µM) of over 10 µM and an IC50 (second compound 10 µM) of over 10 µM. It also gave a viability, T/C [3] of 101%, a viability, T/C [4] of 101% and a viability, T/C [25] of 106%. The viability, T/C [26] was 108%, the viability, T/C [37] was 110% and the viability, T/C [38] was 107%. It also gave a viability, T/C [7] of 114%, a viability, T/C [8] of 110% and a viability, T/C [27] of 104%. It also gave a viability, T/C [28] of 104%, a viability, T/C [39] of 118% and a viability, T/C [40] of 109%. The viability, T/C [11] was 119%, the viability, T/C [12] was 102% and the viability, T/C [29] was 96.1%. It also gave a viability, T/C [30] of 104%, a viability, T/C [41] of 115% and a viability, T/C [42] of 104%. It also gave a viability, T/C [15] of 117%, a viability, T/C [16] of 94% and a viability, T/C [31] of 98.1%. The viability, T/C [32] was 103%, the viability, T/C [43] was 112% and the viability, T/C [44] was 107%. For the same compound, the viability, T/C [19] was 103%, the viability, T/C [20] was 111% and the viability, T/C [33] was 97.2%. It also gave a viability, T/C [34] of 112%, a viability, T/C [45] of 113% and a viability, T/C [46] of 118%. For the same compound, the viability, T/C [23] was 105%, the viability, T/C [24] was 98.6% and the viability, T/C [35] was 92.3%. It also gave a viability, T/C [36] of 105%, a viability, T/C [47] of 105% and a viability, T/C [48] of 102%.
`O=C(c1cc(Cc2n[nH]c(=O)c3ccccc23)ccc1F)N1CCN(C(=O)C2CC2)CC1` + Nc1ccc(C#CCN(C(=O)Cc2ncc(C(F)(F)F)cc2C(F)(F)F)c2ccc(F)cc2)nn1 showed an IC50 (second compound 0.0316 µM) of over 10 µM, an IC50 (second compound 0.1 µM) of over 10 µM and an IC50 (second compound 0.316 µM) of over 10 µM. The IC50 (second compound 1 µM) was over 10 µM, the IC50 (second compound 3.16 µM) was over 10 µM and the IC50 (second compound 10 µM) was over 10 µM. For the same compound, the viability, T/C [3] was 106%, the viability, T/C [4] was 104% and the viability, T/C [25] was 101%. It also gave a viability, T/C [26] of 103%, a viability, T/C [37] of 110% and a viability, T/C [38] of 106%. It also gave a viability, T/C [7] of 108%, a viability, T/C [8] of 103% and a viability, T/C [27] of 105%. The viability, T/C [28] was 112%, the viability, T/C [39] was 103% and the viability, T/C [40] was 102%. The viability, T/C [11] was 99.9%, the viability, T/C [12] was 102% and the viability, T/C [29] was 102%. The viability, T/C [30] was 103%, the viability, T/C [41] was 114% and the viability, T/C [42] was 102%. The viability, T/C [15] was 103%, the viability, T/C [16] was 100% and the viability, T/C [31] was 98.7%. It also gave a viability, T/C [32] of 95.9%, a viability, T/C [43] of 113% and a viability, T/C [44] of 106%. For the same compound, the viability, T/C [19] was 103%, the viability, T/C [20] was 97.7% and the viability, T/C [33] was 99.9%. For the same compound, the viability, T/C [34] was 103%, the viability, T/C [45] was 117% and the viability, T/C [46] was 104%. It also gave a viability, T/C [23] of 95.8%, a viability, T/C [24] of 105% and a viability, T/C [35] of 107%. For the same compound, the viability, T/C [36] was 96.6%, the viability, T/C [47] was 97.6% and the viability, T/C [48] was 96.1%.

From PubChem BioAssay AID1963840 (Molecular Pharmacology Branch, DTP, NCI, 2024)
